Laboratory results as given in patent publication US20070128217A1 (priority 2003, published 2007).

Key:
[1] = tested on: antibodies in sera from SARS patients (sera 1a, 1b, 2, 6, 37, 62, London, SARS-yellow, SARS-green); type: binding, human; design: Binding of serum 6 to linear peptides of protein X1 of SARS-CoV Urbani / Binding of serum 37 to linear peptides of protein X1 of SARS-CoV Urbani / Binding of serum 6 to looped/cyclic peptide (PEPSCAN-ELISA) / Binding of serum 37 to looped/cyclic peptide (PEPSCAN-ELISA) / Binding of serum 37 to looped/cyclic peptides of protein X1 of SARS-CoV Urbani / Binding of serum 6 to linear peptides of protein X2 / Binding of serum 37 to linear peptides of protein X2 / Binding of serum 37 to looped/cyclic peptides of protein X2 of SARS-CoV Urbani / Binding of serum 6 to linear peptides of protein M of SARS-CoV Urbani / Binding of serum 37 to linear peptides of protein M of SARS-CoV Urbani / Binding of serum 6 to looped/cyclic peptides of protein M of SARS-CoV Urbani / Binding of serum 37 to looped/cyclic peptides of protein M of SARS-CoV Urbani / Binding of serum 6 to linear peptides of protein X3 of SARS-CoV Urbani / Binding of serum 37 to linear peptides of protein X3 of SARS-CoV Urbani / Binding of serum 37 to looped/cyclic peptides of protein X3 of SARS-CoV Urbani / Binding of serum 6 to linear peptides of protein X4 of SARS-CoV Urbani / Binding of serum 37 to linear peptides of protein X4 of SARS-CoV Urbani / Binding of serum 37 to looped/cyclic peptides of protein X4 of SARS-CoV Urbani / Binding of serum 6 to linear peptides of protein X5 of SARS-CoV Urbani / Binding of serum 37 to linear peptides of protein X5 of SARS-CoV Urbani / Binding of serum 37 to looped/cyclic peptides of protein X5 of SARS-CoV Urbani / Binding of serum 6 to linear peptides of protein N of SARS-CoV Urbani / Binding of serum 37 to linear peptides of protein N of SARS-CoV Urbani / Binding of serum 6 to linear peptide (PEPSCAN-ELISA) / Binding of serum 1a to looped/cyclic peptides of protein N of SARS-CoV Urbani / Binding of serum 1b to looped/cyclic peptides of protein N of SARS-CoV Urbani / Binding of serum 2 to looped/cyclic peptides of protein N of SARS-CoV Urbani / Binding of serum 6 to looped/cyclic peptides of protein N of SARS-CoV Urbani / Binding of serum 37 to looped/cyclic peptides of protein N of SARS-CoV Urbani / Binding of serum 62 to looped/cyclic peptides of protein N of SARS-CoV Urbani / Binding of serum London to looped/cyclic peptides of protein N of SARS-CoV Urbani / Binding of serum SARS-green to looped/cyclic peptides of protein N of SARS-CoV Urbani: unit not given here
[2] = tested on: control sera (pooled serum of ten healthy LUMC hospital workers; commercial negative donor pooled serum from the Dutch bloodbank); type: binding, human; design: Binding of Control serum LUMC to linear peptides / Binding of Control serum Blood-bank to linear peptides / Binding of Control serum LUMC to looped peptides / Binding of Control Serum Blood-Bank to Looped peptides / Binding of Control serum LUMC to linear peptides of the protein M of SARS-CoV Urbani / Binding of Control serum Blood-bank to linear peptides of the protein M of SARS-CoV Urbani / Binding of Control serum LUMC to looped peptides of the protein M of SARS-CoV Urbani / Binding of Control Serum Blood-Bank to Looped peptides of the protein M of SARS-CoV Urbani: unit not given here
[3] = tested on: rabbit serum obtained by immunizing a rabbit with the SARS-CoV strain Frankfurt 1; type: binding; design: Binding of a rabbit serum to linear peptides / Binding of a rabbit serum to looped peptides / Rabbit serum linear peptides / Rabbit serum looped peptides / Binding of a rabbit serum to linear peptides of protein N of SARS-CoV Urbani (Rabbit serum linear peptides) / Binding of a rabbit serum to looped/cyclic peptides of protein N of SARS-CoV Urbani (Rabbit serum looped peptides): unit not given here

LQASLPFGWLVIGVA
0.2: Binding of serum London to linear peptides of protein X1 of SARS-CoV Urbani [1] | Binding of serum London to looped/cyclic peptide (PEPSCAN-ELISA) [1] | Binding of serum SARS-green to looped/cyclic peptide (PEPSCAN-ELISA) [1]
0.5: Binding of serum 62 to looped/cyclic peptide (PEPSCAN-ELISA) [1] | Binding of Control serum LUMC to linear peptides [2] | Binding of Control serum LUMC to looped peptides [2] | Binding of a rabbit serum to linear peptides [3]
0.4: Binding of serum 1a to looped/cyclic peptide (PEPSCAN-ELISA) [1] | Binding of serum 6 to linear peptides of protein X1 of SARS-CoV Urbani [1] | Binding of serum 37 to looped/cyclic peptide (PEPSCAN-ELISA) [1] | Binding of serum SARS-yellow to looped/cyclic peptide (PEPSCAN-ELISA) [1] | Binding of a rabbit serum to looped peptides [3]
0.8: Binding of Control serum Blood-bank to linear peptides [2]
0.7: Binding of serum 1a to linear peptides of protein X1 of SARS-CoV Urbani [1] | Binding of serum 37 to linear peptides of protein X1 of SARS-CoV Urbani [1] | Binding of serum 62 to linear peptides of protein X1 of SARS-CoV Urbani [1]
0.3: Binding of serum 1b to looped/cyclic peptide (PEPSCAN-ELISA) [1] | Binding of serum 2 to looped/cyclic peptide (PEPSCAN-ELISA) [1] | Binding of serum 6 to looped/cyclic peptide (PEPSCAN-ELISA) [1] | Binding of serum SARS-green to linear peptides of protein X1 of SARS-CoV Urbani [1]
0.6: Binding of serum 1b to linear peptides of protein X1 of SARS-CoV Urbani [1] | Binding of serum 2 to linear peptides of protein X1 of SARS-CoV Urbani [1] | Binding of serum SARS-yellow to linear peptides of protein X1 of SARS-CoV Urbani [1] | Binding of Control Serum Blood-Bank to Looped peptides [2]

LQCINACRIIMRCWL
1.4: Binding of serum 6 to looped/cyclic peptide (PEPSCAN-ELISA) [1]
0.1: Binding of serum SARS-green to linear peptides of protein X1 of SARS-CoV Urbani [1]
0.5: Binding of serum 1a to looped/cyclic peptide (PEPSCAN-ELISA) [1] | Binding of serum 1b to linear peptides of protein X1 of SARS-CoV Urbani [1] | Binding of serum 2 to linear peptides of protein X1 of SARS-CoV Urbani [1]
0.9: Binding of serum 62 to looped/cyclic peptide (PEPSCAN-ELISA) [1] | Binding of Control serum Blood-bank to linear peptides [2]
recognized: Recognition of the peptide by the rabbit serum [3]
0.6: Binding of serum 2 to looped/cyclic peptide (PEPSCAN-ELISA) [1] | Binding of serum 6 to linear peptides of protein X1 of SARS-CoV Urbani [1] | Binding of serum 37 to looped/cyclic peptide (PEPSCAN-ELISA) [1] | Binding of serum 62 to linear peptides of protein X1 of SARS-CoV Urbani [1] | Binding of Control serum LUMC to looped peptides [2]
0.3: Binding of serum 1b to looped/cyclic peptide (PEPSCAN-ELISA) [1] | Binding of serum London to linear peptides of protein X1 of SARS-CoV Urbani [1] | Binding of serum SARS-yellow to linear peptides of protein X1 of SARS-CoV Urbani [1]
1.7: Binding of serum London to looped/cyclic peptide (PEPSCAN-ELISA) [1]
0.4: Binding of serum SARS-yellow to looped/cyclic peptide (PEPSCAN-ELISA) [1]
0.7: Binding of serum 1a to linear peptides of protein X1 of SARS-CoV Urbani [1] | Binding of serum 37 to linear peptides of protein X1 of SARS-CoV Urbani [1] | Binding of Control Serum Blood-Bank to Looped peptides [2] | Binding of Control serum LUMC to linear peptides [2]
0.2: Binding of serum SARS-green to looped/cyclic peptide (PEPSCAN-ELISA) [1]

LQFAYSNRNRFLYII
0.6: Binding of serum 2 to linear peptides of protein M of SARS-CoV Urbani [1] | Binding of serum 37 to looped/cyclic peptides of protein M of SARS-CoV Urbani [1] | Binding of serum 62 to looped/cyclic peptides of protein M of SARS-CoV Urbani [1] | Binding of Control Serum Blood-Bank to Looped peptides of the protein M of SARS-CoV Urbani [2] | Binding of Control serum Blood-bank to linear peptides of the protein M of SARS-CoV Urbani [2] | Binding of Control serum LUMC to looped peptides of the protein M of SARS-CoV Urbani [2] | Rabbit serum linear peptides [3]
0.4: Binding of serum SARS-green to looped/cyclic peptides of protein M of SARS-CoV Urbani [1] | Binding of Control serum LUMC to linear peptides of the protein M of SARS-CoV Urbani [2] | Rabbit serum looped peptides [3]
0.2: Binding of serum London to linear peptides of protein M of SARS-CoV Urbani [1] | Binding of serum London to looped/cyclic peptides of protein M of SARS-CoV Urbani [1] | Binding of serum SARS-green to linear peptides of protein M of SARS-CoV Urbani [1]
0.7: Binding of serum 1a to linear peptides of protein M of SARS-CoV Urbani [1] | Binding of serum 1a to looped/cyclic peptides of protein M of SARS-CoV Urbani [1] | Binding of serum 6 to looped/cyclic peptides of protein M of SARS-CoV Urbani [1] | Binding of serum 37 to linear peptides of protein M of SARS-CoV Urbani [1] | Binding of serum 62 to linear peptides of protein M of SARS-CoV Urbani [1]
0.0: Binding of serum SARS-yellow to linear peptides of protein M of SARS-CoV Urbani [1]
0.5: Binding of serum 1b to linear peptides of protein M of SARS-CoV Urbani [1] | Binding of serum 1b to looped/cyclic peptides of protein M of SARS-CoV Urbani [1] | Binding of serum 2 to looped/cyclic peptides of protein M of SARS-CoV Urbani [1] | Binding of serum SARS-yellow to looped/cyclic peptides of protein M of SARS-CoV Urbani [1]
0.3: Binding of serum 6 to linear peptides of protein M of SARS-CoV Urbani [1]

LQTLVLKMLHSSSLT
0.5: Binding of serum 1b to linear peptides of protein X2 [1] | Binding of serum 2 to linear peptides of protein X2 [1] | Binding of serum 6 to looped/cyclic peptides of protein X2 of SARS-CoV Urbani [1] | Binding of serum London to looped/cyclic peptides of protein X2 of SARS-CoV Urbani [1] | Binding of serum SARS-green to linear peptides of protein X2 [1] | Binding of Control Serum Blood-Bank to Looped peptides [2] | Binding of Control serum LUMC to linear peptides [2] | Binding of Control serum LUMC to looped peptides [2]
0.4: Binding of serum 1a to looped/cyclic peptides of protein X2 of SARS-CoV Urbani [1] | Binding of serum 1b to looped/cyclic peptides of protein X2 of SARS-CoV Urbani [1] | Binding of serum 6 to linear peptides of protein X2 [1] | Binding of serum 62 to looped/cyclic peptides of protein X2 of SARS-CoV Urbani [1] | Binding of serum London to linear peptides of protein X2 [1]
0.6: Binding of serum 37 to linear peptides of protein X2 [1] | Binding of serum 62 to linear peptides of protein X2 [1]
0.3: Binding of serum 2 to looped/cyclic peptides of protein X2 of SARS-CoV Urbani [1] | Binding of serum 37 to looped/cyclic peptides of protein X2 of SARS-CoV Urbani [1] | Binding of serum SARS-green to looped/cyclic peptides of protein X2 of SARS-CoV Urbani [1] | Binding of serum SARS-yellow to looped/cyclic peptides of protein X2 of SARS-CoV Urbani [1] | Binding of a rabbit serum to linear peptides [3] | Binding of a rabbit serum to looped peptides [3]
0.7: Binding of serum 1a to linear peptides of protein X2 [1] | Binding of serum SARS-yellow to linear peptides of protein X2 [1] | Binding of Control serum Blood-bank to linear peptides [2]

LSLLKVTAFQHQNSK
0.1: Binding of serum 1b to linear peptides of protein X2 [1] | Binding of serum 2 to linear peptides of protein X2 [1] | Binding of serum 2 to looped/cyclic peptides of protein X2 of SARS-CoV Urbani [1] | Binding of serum 6 to looped/cyclic peptides of protein X2 of SARS-CoV Urbani [1] | Binding of serum London to looped/cyclic peptides of protein X2 of SARS-CoV Urbani [1] | Binding of serum SARS-green to linear peptides of protein X2 [1] | Binding of serum SARS-green to looped/cyclic peptides of protein X2 of SARS-CoV Urbani [1] | Binding of Control serum Blood-bank to linear peptides [2]
0.4: Binding of serum 1a to linear peptides of protein X2 [1] | Binding of serum 37 to linear peptides of protein X2 [1] | Binding of Control Serum Blood-Bank to Looped peptides [2] | Binding of Control serum LUMC to linear peptides [2] | Binding of a rabbit serum to linear peptides [3]
0.3: Binding of serum 1a to looped/cyclic peptides of protein X2 of SARS-CoV Urbani [1] | Binding of serum 62 to looped/cyclic peptides of protein X2 of SARS-CoV Urbani [1] | Binding of Control serum LUMC to looped peptides [2] | Binding of a rabbit serum to looped peptides [3]
0.0: Binding of serum SARS-yellow to linear peptides of protein X2 [1]
0.2: Binding of serum 1b to looped/cyclic peptides of protein X2 of SARS-CoV Urbani [1] | Binding of serum 6 to linear peptides of protein X2 [1] | Binding of serum 37 to looped/cyclic peptides of protein X2 of SARS-CoV Urbani [1] | Binding of serum 62 to linear peptides of protein X2 [1] | Binding of serum London to linear peptides of protein X2 [1] | Binding of serum SARS-yellow to looped/cyclic peptides of protein X2 of SARS-CoV Urbani [1]
